Assay results: ChEMBL document CHEMBL1649470 (Antimicrob Agents Chemother, 2009)
Activity calls are given as the source filed them. No cut-off for these calls is given here.

Assays:
Influenza A virus [1] = assay: Antiviral activity against Influenza A virus (A/chicken/Yogjakarta/BBVet-IX/2004(H5N1)) infected in BALB/c mouse assessed as decrease in viral load in brain at 20 mg/kg, po BID for 5 days measured on day 9 postinfection; type: functional, organism-based; set-up: dose 20 mg/kg
Influenza A virus [2] = assay: Antiviral activity against Influenza A virus (A/duck/Laos/25/2006(H5N1)) infected in BALB/c mouse assessed as survival rate at 20 mg/kg, po BID for 5 days measured post last dose; type: functional; settings: 120 h
Influenza A virus [3] = assay: Antiviral activity against Influenza A virus (A/chicken/Yogjakarta/BBVet-IX/2004(H5N1)) infected in BALB/c mouse assessed as decrease in viral load in lung at 20 mg/kg, po BID for 5 days measured on day 9 postinfection; type: functional, organism-based; set-up: dose 20 mg/kg
Influenza A virus [4] = assay: Antiviral activity against Influenza A virus (A/duck/Laos/25/2006(H5N1)) infected in BALB/c mouse assessed as virus-induced change body weight at 20 mg/kg, po BID for 5 days measured on day 9 postinfection; type: functional
Influenza A virus [5] = assay: Antiviral activity against Influenza A virus (A/chicken/Yogjakarta/BBVet-IX/2004(H5N1)) infected in BALB/c mouse assessed as virus-induced change body weight at 20 mg/kg, po BID for 5 days measured on day 6 postinfection; type: functional
Influenza A virus [6] = assay: Antiviral activity against Influenza A virus (A/duck/Laos/25/2006(H5N1)) infected in BALB/c mouse assessed as virus-induced change body weight at 20 mg/kg, po BID for 5 days measured on day 6 postinfection; type: functional
Influenza A virus [7] = assay: Antiviral activity against Influenza A virus (A/Thailand/1(KAN-1)/2004(H5N1)) infected in BALB/c mouse assessed as decrease in viral load in brain at 20 mg/kg, po BID for 5 days measured on day 9 postinfection; type: functional, organism-based; set-up: dose 20 mg/kg
Influenza A virus [8] = settings: 120 h, route oral
Influenza A virus [9] = assay: Antiviral activity against Influenza A virus (A/whooper swan/Mongolia/1/2009(H5N1)) infected in BALB/c mouse assessed as survival rate at 20 mg/kg, po BID for 5 days measured post last dose; type: functional; settings: 120 h
Influenza A virus [10] = assay: Antiviral activity against Influenza A virus (A/Thailand/1(KAN-1)/2004(H5N1)) infected in BALB/c mouse assessed as decrease in viral load in lung at 20 mg/kg, po BID for 5 days measured on day 9 postinfection; type: functional, organism-based; set-up: dose 20 mg/kg
Influenza A virus [11] = settings: dose 20 mg/kg; route oral
Influenza A virus [12] = assay: Antiviral activity against Influenza A virus (A/whooper swan/Mongolia/1/2009(H5N1)) infected in BALB/c mouse assessed as virus-induced change body weight at 20 mg/kg, po BID for 5 days measured on day 6 postinfection; type: functional
Influenza A virus [13] = assay: Antiviral activity against Influenza A virus (A/chicken/Yogjakarta/BBVet-IX/2004(H5N1)) infected in BALB/c mouse assessed as virus-induced change body weight at 20 mg/kg, po BID for 5 days measured on day 9 postinfection; type: functional
Influenza A virus [14] = assay: Antiviral activity against Influenza A virus (A/chicken/Yogjakarta/BBVet-IX/2004(H5N1)) infected in BALB/c mouse assessed as survival rate at 20 mg/kg, po BID for 5 days measured post last dose; type: functional; settings: 120 h
Influenza A virus [15] = assay: Antiviral activity against Influenza A virus (A/Thailand/1(KAN-1)/2004(H5N1)) infected in BALB/c mouse assessed as virus-induced change body weight at 20 mg/kg, po BID for 5 days measured on day 9 postinfection; type: functional
Influenza A virus [16] = assay: Antiviral activity against Influenza A virus (A/Thailand/1(KAN-1)/2004(H5N1)) infected in BALB/c mouse assessed as virus-induced change body weight at 20 mg/kg, po BID for 5 days measured on day 15 postinfection; type: functional
Influenza A virus [17] = assay: Antiviral activity against Influenza A virus (A/whooper swan/Mongolia/1/2009(H5N1)) infected in BALB/c mouse assessed as virus-induced change body weight at 20 mg/kg, po BID for 5 days measured on day 15 postinfection; type: functional
Influenza A virus [18] = assay: Antiviral activity against Influenza A virus (A/duck/Laos/25/2006(H5N1)) infected in BALB/c mouse assessed as virus-induced change body weight at 20 mg/kg, po BID for 5 days measured on day 15 postinfection; type: functional
Influenza A virus [19] = assay: Antiviral activity against Influenza A virus (A/duck/Laos/25/2006(H5N1)) infected in BALB/c mouse assessed as decrease in viral load in lung at 20 mg/kg, po BID for 5 days measured on day 3 postinfection; type: functional, organism-based; set-up: dose 20 mg/kg
Influenza A virus [20] = assay: Antiviral activity against Influenza A virus (A/whooper swan/Mongolia/1/2009(H5N1)) infected in BALB/c mouse assessed as virus-induced change body weight at 20 mg/kg, po BID for 5 days measured on day 9 postinfection; type: functional
Influenza A virus [21] = assay: Antiviral activity against Influenza A virus (A/whooper swan/Mongolia/1/2009(H5N1)) infected in BALB/c mouse assessed as decrease in viral load in lung at 20 mg/kg, po BID for 5 days measured on day 9 postinfection; type: functional, organism-based; set-up: dose 20 mg/kg
Influenza A virus [22] = assay: Antiviral activity against Influenza A virus (A/Thailand/1(KAN-1)/2004(H5N1)) infected in BALB/c mouse assessed as decrease in viral load in lung at 20 mg/kg, po BID for 5 days measured on day 6 postinfection; type: functional, organism-based; set-up: dose 20 mg/kg
Influenza A virus [23] = settings: dose 20 mg/kg; route oral; remark: listed apart in the source
Influenza A virus [24] = assay: Antiviral activity against Influenza A virus (A/Thailand/1(KAN-1)/2004(H5N1)) infected in BALB/c mouse assessed as survival rate at 20 mg/kg, po BID for 5 days measured post last dose; type: functional; settings: 120 h
Influenza A virus [25] = assay: Antiviral activity against Influenza A virus (A/Thailand/1(KAN-1)/2004(H5N1)) infected in BALB/c mouse assessed as virus-induced change body weight at 20 mg/kg, po BID for 5 days measured on day 6 postinfection; type: functional
Influenza A virus [26] = assay: Antiviral activity against Influenza A virus (A/whooper swan/Mongolia/1/2009(H5N1)) infected in BALB/c mouse assessed as decrease in viral load in brain at 20 mg/kg, po BID for 5 days measured on day 6 postinfection; type: functional, organism-based; set-up: dose 20 mg/kg
Influenza A virus [27] = assay: Antiviral activity against Influenza A virus (A/whooper swan/Mongolia/1/2009(H5N1)) infected in BALB/c mouse assessed as mean day to death at 20 mg/kg, po BID for 5 days measured post last dose; type: functional
Influenza A virus [28] = assay: Antiviral activity against Influenza A virus (A/Thailand/1(KAN-1)/2004(H5N1)) infected in BALB/c mouse assessed as mean day to death at 20 mg/kg, po BID for 5 days measured post last dose; type: functional
Influenza A virus [29] = assay: Antiviral activity against Influenza A virus (A/chicken/Yogjakarta/BBVet-IX/2004(H5N1)) infected in BALB/c mouse assessed as mean day to death at 20 mg/kg, po BID for 5 days measured post last dose; type: functional
Influenza A virus [30] = assay: Antiviral activity against Influenza A virus (A/whooper swan/Mongolia/1/2009(H5N1)) infected in BALB/c mouse assessed as decrease in viral load in brain at 20 mg/kg, po BID for 5 days measured on day 3 postinfection; type: functional, organism-based; set-up: dose 20 mg/kg
Influenza A virus [31] = assay: Antiviral activity against Influenza A virus (A/chicken/Yogjakarta/BBVet-IX/2004(H5N1)) infected in BALB/c mouse assessed as virus-induced change body weight at 20 mg/kg, po BID for 5 days measured on day 15 postinfection; type: functional
Influenza A virus [32] = assay: Antiviral activity against Influenza A virus (A/duck/Laos/25/2006(H5N1)) infected in BALB/c mouse assessed as mean day to death at 20 mg/kg, po BID for 5 days measured post last dose; type: functional
Influenza A virus [33] = assay: Antiviral activity against Influenza A virus (A/whooper swan/Mongolia/1/2009(H5N1)) infected in BALB/c mouse assessed as decrease in viral load in brain at 20 mg/kg, po BID for 5 days measured on day 9 postinfection; type: functional, organism-based; set-up: dose 20 mg/kg
Influenza A virus [34] = assay: Antiviral activity against Influenza A virus (A/duck/Laos/25/2006(H5N1)) infected in BALB/c mouse assessed as decrease in viral load in brain at 20 mg/kg, po BID for 5 days measured on day 9 postinfection; type: functional, organism-based; set-up: dose 20 mg/kg

Structure (SMILES): CCOC(=O)C1=C[C@@H](OC(CC)CC)[C@H](NC(C)=O)[C@@H](N)C1 [OSELTAMIVIR]
- Activity (Influenza A virus [1]): Active
- survival at 20 mg/kg (Influenza A virus [2]): 60%
- Activity (Influenza A virus [3]): Active
- Activity (Influenza A virus [4]): -20.3%
- Activity (Influenza A virus [5]): -22%
- Activity (Influenza A virus [6]): -0.2%
- Activity (Influenza A virus [7]): inactive
- survival at 20 mg/kg (Influenza A virus [8]): 0%
- survival at 20 mg/kg (Influenza A virus [9]): 70%
- Activity (Influenza A virus [10]): Active
- Time (Influenza A virus [11]): 8 days
- Activity (Influenza A virus [12]): -7%
- Activity (Influenza A virus [13]): -11.2%
- survival at 20 mg/kg (Influenza A virus [14]): 100%
- Activity (Influenza A virus [15]): -17.6%
- Activity (Influenza A virus [16]): -2.1%
- Activity (Influenza A virus [17]): -10.6%
- Activity (Influenza A virus [18]): -7.6%
- inhibition (Influenza A virus [19]): Active
- Activity (Influenza A virus [20]): -18.2%
- Activity (Influenza A virus [21]): Active
- Activity (Influenza A virus [22]): Active
- Activity (Influenza A virus [23]): -24.4%
- survival at 20 mg/kg (Influenza A virus [24]): 80%
- Activity (Influenza A virus [25]): -10.7%
- Activity (Influenza A virus [26]): inactive
- Time (Influenza A virus [27]): 9.7 days
- Time (Influenza A virus [28]): 10 days
- Time (Influenza A virus [29]): >21 days
- Activity (Influenza A virus [30]): inactive
- Activity (Influenza A virus [31]): 1.2%
- Time (Influenza A virus [32]): 13.5 days
- Activity (Influenza A virus [33]): inactive
- Activity (Influenza A virus [34]): Active
